Entries after “also recorded” stand apart in the source; their conditions may differ.
What was measured:
HCMV [1] = assay: HCMV pp65 western blot in HEL cells; type: cell-based, Human cytomegalovirus; conditions: antibody 10 ng/ml 30 min or AG 1295 20 pM, Towne HCMV 10 min at 37 C
Experimental: HEL cells were transfected with siRNA against the PI3K p110α catalytic subunit (a mixture of 4 RNAi oligos, “smart pool” from Dharmacon) or non-targeting, control siRNA (Dharmacon) for 48 h prior to infection with HCMV (MOI of 1) for 1 hour. Cells were washed and cultured for 2 h-6 days. a. […] The mean number of IE1 positive cells is reduced by ˜50% in the PI3 Kp110α knockdown cultures—panel c**, p<0.01. PI3K p110α knock down is also significant (b, left panels, red fluorescence). However, unlike cells that lack a functional PDGFRα, PI3K p110α knock down cells are capable of producing infectious virus as shown by IE1 staining of the secondary infected cultures (panel d). A 10% decrease in infectious virus production in the cells treated with p110α siRNA is insignificant*, bars represent SD, […], panel c. Experiments were repeated twice, all conditions were assayed in triplicate. Similar results were obtained with both Towne-infected cultures (illustrated in this figure) and CMV-GFP.
Upper panel: HEL cells pretreated with anti-human PDGFRα antibody (10 ng/ml, for 30 min, clone AF-307-NA from R&D; lanes 1 and 4) or with AG 1295 (lane 3, […], from Calbiochem) were stimulated with Towne HCMV (lanes 2-4) or Mock infected (lane 1) for 10 min at 37 C. […]
Western Blot, Immunoprecipitation, and Immunofluorescence analyses. […] Cell lysates were analyzed by SDS-PAGE. […]

PI3-K/Akt signaling = type: cell-based, human
Experimental: (A) HEL cells stimulated with HCMV or PDGF-AA were subjected to immunoprecipitation and western blot analyses with indicated antibodies. (B) Phospho-PDGFRα ELISA of cells+/−pretreatment with IMC-3G3 (10 μg/ml, 2 h) followed by HCMV (MOI=1) or PDGF (10 ng/ml) for 10 min. Mean values (n=6)±S.D are shown. (C) Western blot of HEL mock, HCMV, or PDGF-AA stimulated (10 min), +/−IMC-3G3 (2 μg/ml) or Gleevec® (Imatinib) (100 nM). The same membrane was used for p-Akt^Ser 473 and Akt.
HEL cells pretreated with blocking reagents (as indicated; 30 min, 37 C) were stimulated for 10 min with HCMV, PDGF-AA (5 ng/ml), or mock-treated. Cell lysates were collected in RIPA buffer (supplemented with protease and phosphatase inhibitors) and subjected to Western blot analysis.
For stimulation experiments, cells were serum-starved for 24 h, followed by stimulation with HCMV (MOI of 0.5), PDGF-AA (5-10 ng/ml, from R&D Systems), or mock, for 10 minutes. In some cases, cells were pre-treated with IMC-3G3 (ImClone Inc.) at 10 g/ml (2 or 12 h) or Gleevec® (100 nM, 1 h) prior to HCMV exposure. Cell lysates were analyzed by SDS-PAGE. Antibodies used were as follows: polyclonal anti-PDGFRα ( 1/500), phosphor-Tyrosine clone 4G10 ( 1/1000), and monoclonal anti-p85 PI3-K ( 1/1000), (Upstate Biotechnology), anti HCMV IE1 MAB810 (Chemicon; 1/1000), anti HCMV pp65 (Novocastra, 1/1000), anti-phosphor-PDGFRα ( 1/500, pTyr 754), anti-phosphor-Akt (Ser 473, 1/1000) and total Akt ( 1/1000; all from Cell Signaling). Anti-actin polyclonal control antibody was used ( 1/500, Sigma). Immunoprecipitations were performed using protein G (Pierce) according to manufacturer's instructions.

HCMV [2] = assay: IE1 immunofluorescence of HCMV infected HEL cells; type: cell-based, Human cytomegalovirus; conditions: HEL; antibody 1 h or AG1295 15 min before HCMV; 1 h at 37 C plus additional 6 h
Experimental: HEL cells were transfected with PDGFRα siRNA (smart pool, Dharmacon) or non-targeting control siRNA (Dharmacon) for 48-60 hours when maximum protein knockdown is achieved (panels a and b. Also see FIG. 3d). Cells were then infected with Towne, AD169, TR, or CMV-GFP strains of HCMV for 1 hour, washed and returned to 37° C. in complete growth media. Supernatants obtained from these cultures were used in subsequent assays measuring production of infectious virus as described below. […] Cultures infected with supernatants from GFP-CMV treated cells were monitored daily under the fluorescence microscope. Over 40% of the control siRNA treated cells expressed CMV-GFP 1 day post infection (c, 1 dpi) and this number increased to 100% by day 6 (c, 6 dpi). Note the appearance of “plaques”-like groups of cells in control siRNA transfected cells (c, 3 and 6 dpi). […]
Measurements of Infectious Virus Production. […] A duplicate set of cultures was analyzed by immunofluorescence at 12 hours post infection (hpi) to assess percent of IE1 positive cells, as a measure of “primary infection”. […] 12 hpi cells were stained for IE1 and IE1 positive cells were counted amongst a total of 100 cells/low magnification microscopic field, 4 fields/condition. […] Where indicated, CMV-GFP infected cells were monitored daily under fluorescence microscope. […]

HCMV [3] = assay: HCMV IE1 / viral gene expression, western blot of infected cells; type: cell-based, Human cytomegalovirus; conditions: for HCMV IE1 gene expression: IMC-3G3 10 μg/ml 12 h or Gleevec 100 nM 1 h pre-treatment, western blot
Experimental: (A) pp65 immunofluorescence after HCMV treatment (1 h, 4° C.) followed by shifting to 37° C. for indicated times. Rows represent (top to bottom): HEL, PDGFRα null fibroblasts, parental fibroblasts, null fibroblasts overexpressing hPDGFRα, HEL transfected with control, or PDGFRα siRNA. Nuclei were stained with DAPI. (B) Average±S.D. pp65 positive/100 cells counted in triplicate from (A). (C) Mock or HCMV infected cells were analyzed by western blotting with the indicated antibodies. Lanes 1-4 indicate HEL, 325S, PDGFRα null and PDGFRα null over-expressing hPDGFRα, respectively. (D) HEL transfected with control or PDGFRα siRNA were mock (lanes 1) or HCMV-treated (lanes 2) and subjected to western blots with indicated antibodies. (E) Western blot of HEL and U87 lysates after infection with mock (lanes 1), HCMV (lanes 2), or HCMV pretreated with IMC-3G3 (10 μg/ml, 12 h, lanes 3) or Gleevec (100 nM, 1 h, lanes 4). (F) PDGFRα siRNA treated cells infected with indicated HCMV strains and immunostained for IE1 12 hpi (primary infection). 6 dpi, supernatants were used to infect naïve HEL cells, followed by IE1 immunostaining and quantification (secondary infection). Average (n=6) values±S.D. are shown.
HUVEC cells were pre-treated with IMC-3G3 (10 μg/ml, Imclone, 12 h), or Gleevec (100 nM, 1 h) prior to HCMV or mock infection. 12 hours post-infection, cell lysates were analyzed by western blot for the presence of IE1 gene product. […] The same blot was stripped and re-probed for actin (lower panel). Lane designation is 1—Mock, 2—HCMV, 3—IMC-3G3+HCMV, 4—Gleevec+HCMV.
Upper panel: HEL cells pretreated with anti-human PDGFRα antibody (10 ng/ml, for 30 min, clone AF-307-NA from R&D; lanes 1 and 3) or with AG 1295 (lane 4, […], from Calbiochem) were stimulated with Towne HCMV (lanes 2 through 4) or Mock infected (lane 1) for 10 min at 37 C. Cells were washed and further incubated for 2 h at 37 C (to allow expression of IE1 gene product). Afterwards, cells were harvested in RIPA buffer and processed for western blotting as described.
Western Blot, Immunoprecipitation, and Immunofluorescence analyses. For stimulation experiments, cells were serum-starved for 24 h, followed by stimulation with HCMV (MOI of 0.5), PDGF-AA (5-10 ng/ml, from R&D Systems), or mock, for 10 minutes. In some cases, cells were pre-treated with IMC-3G3 (ImClone Inc.) at 10 µg/ml (2 or 12 h) or Gleevec® (100 nM, 1 h) prior to HCMV exposure. Cell lysates were analyzed by SDS-PAGE. Antibodies used were as follows: polyclonal anti-PDGFRα ( 1/500), phosphor-Tyrosine clone 4G10 ( 1/1000), and monoclonal anti-p85 PI3-K ( 1/1000), (Upstate Biotechnology), anti HCMV IE1 MAB810 (Chemicon; 1/1000), anti HCMV pp65 (Novocastra, 1/1000), anti-phosphor-PDGFRα ( 1/500, pTyr 754), anti-phosphor-Akt (Ser 473, 1/1000) and total Akt ( 1/1000; all from Cell Signaling). Anti-actin polyclonal control antibody was used ( 1/500, Sigma). Immunoprecipitations were performed using protein G (Pierce) according to manufacturer's instructions. For immunofluorescence, monoclonal HCMV pp65 and phosphor-PDGFRα (p-Tyr 754, Santa Cruz Biotechnology) were used, overnight at 4° C., followed by 1 hour incubation with secondary antibodies conjugated to Alexa-488, or Alexa 568 ( 1/5,000, Molecular Probes). Nuclei were counterstained with DAPI. Co-immunoprecipitation experiments were performed using full length soluble purified recombinant gB (gB 680, from Don Diamond, City of Hope, Calif.) and detergent soluble extract of HEL cells generated in lysis buffer (1% NP-40, 75 mM NaCl and 50 mM Tris-HCl). 500 μg of protein from total cell extract was incubated with 25 μg of gB 680 in lysis buffer in the presence of an anti-gB (Virusys, Inc) or anti-PDGFRα (R&D) antibody overnight at 4° C. Immune complexes were recovered with protein A-Sepharose beads (2 hr incubation), denatured and separated on SDS-PAGE for western blot with anti-gB (Virusys, Inc) or anti-PDGFRα (Cell Signaling Technology) antibodies.

HCMV [4] = assay: Viral attachment and internalization assay (pp65 immunofluorescence); type: cell-based, Human cytomegalovirus
Experimental: (A) HEL cells were pretreated with PBS (20 min 4° C.), IMC-3G3 (2 h, 37° C., 10 μg/ml), or PDGF-AA (20 min, 4° C., 10 ng/ml) prior to infection with HCMV (MOI of 1, 4° C., 1 h). Cells were returned to 37° C. for 30 minutes, and processed for pp65^HCMV and PDGFRα double immunofluorescence. […] All conditions were assayed in triplicate cultures. One hundred cells in 4 low magnification fields were counted. Bars represent SD.
Viral Attachment and Internalization Assays. Mouse fibroblasts and HEL cells (72 hours following siRNA transfections) were incubated with HCMV (MOI of 0.5) or mock treated for 1 hour at 4° C., after which cells were returned to 37° C. for 15, 30, or 60 min. Cells were fixed using methanol (20 min) and processed for pp65 immunofluorescence. Four low power fields were counted for each condition and pp65 positive were recorded for each 100 cells. Internalization assays were repeated twice.

[5] = human epithelial, endothelial, and fibroblast cells

Compound: Cc1cc2ncc(-c3ccccc3)nc2cc1C [AG1295, reference compound]
- amount of pp65 (anti-pp65 blot) (HCMV [1]): decrease
- p-Akt levels induced by either PDGF or HCMV (PI3-K/Akt signaling; HEL pretreated with blocking reagents 30 min, 37 C, stimulated 10 min with HCMV or PDGF-AA 5 ng/ml): decreased
- IE1 levels (HCMV [2]): significant decrease

Compound: Cc1ccc(NC(=O)c2ccc(CN3CCN(C)CC3)cc2)cc1Nc1nccc(-c2cccnc2)n1 [Gleevec, 4-[(4-methylpiperazin-1-yl)methyl]-N-[4-methyl-3-[(4-pyridin-3-ylpyrimidin-2-yl)amino]-phenyl]-benzamide, reference compound]
- HCMV IE1 gene expression (HCMV [3]; HEL cells): completely inhibited
- HCMV IE1 expression (HCMV [3]; HUVEC, pre-treated with IMC-3G3 10 μg/ml 12 h or Gleevec 100 nM 1 h, western blot 12 hours post-infection): completely inhibited
- HCMV IE1 gene expression (HCMV [3]; U87 glioma cells): completely inhibited
- HCMV gene expression (HCMV [3]; [5]): completely inhibited
- HCMV viral internalization (HCMV [4]; [5]): completely inhibited
- Akt phosphorylation induced by either HCMV or PDGF-AA (PI3-K/Akt signaling; HEL, 10 min stimulation, IMC-3G3 2 μg/ml or Gleevec 100 nM, p-Akt Ser 473): abolished

Compound: PDGF-AA: the authentic (genuine) PDGFRα ligand, from R&D Systems [reference compound]
- HCMV entry (HCMV [4]; HEL cells harboring endogenous PDGFRα, pretreatment with PDGF-AA): significantly decreased; also recorded: competitively inhibited
- inhibition of HCMV entry (pp65 positive cells) (HCMV [4]; HEL cells, IMC-3G3 2 h, 37° C., 10 μg/ml, PDGF-AA 20 min, 4° C., 10 ng/ml, HCMV MOI of 1, 30 min at 37° C.): ~30%

From patent US9340788B2 (priority 2007, dated 2016)
